Here are results for one substance from publication PMC11574045, “A cofactor-induced repressive type of transcription factor condensation can be induced by synthetic peptides to suppress tumorigenesis” (The EMBO Journal, 2024).

As a reminder, the IC50 is the concentration needed to halve the response being measured.

Where “and” joins values, the source holds several entries; their conditions need not be identical. Identical values can stand only once. Ends that are not written are not given here.

One data set deals with CTGF. Description: RNA-scope of CTGF in tumor tissues. Type of data set: in vivo, mouse. The note with it: tumors of GLUP-treated mice. As for the experimental part:
RNA-scope was performed according to manufacturer’s protocols (RNAscope Red Detection Kit, ACDbio, 322360). Briefly, the tumor sections (3 μm thickness) were obtained from MNU-generated gastric tumor tissues. The sections were deparaffinized, retrieved, and then hybridized with Ctgf probes following the manufacturer’s instructions (ACD, Hayward, CA, USA). Subsequently, the signal of hybridized probes was further visualized using RED dye-labeled probes. Finally, the samples were redyed, this time with hematoxylin, and mounted with VectaMount Permanent Mounting Medium (Vector Laboratories, Burlingame, CA, USA), and photographed using a Nikon Upright Fluorescence Microscope (Nikon, Japan). Positive and negative control probes were used for each experiment to help derive conclusions from the data.

The target of another data set is T1, TEAD4 (Homo sapiens, UniProt Q15561).
T1 construct: His; made in house; host or cells: Escherichia coli BL21(DE3)
Put plainly: In vitro DSS-cross-linking assay of TEAD4 oligomerization. Type of data set: biochemical. The settings on record: 5 µM protein, 30 min 30 °C, DSS 3 mM, SDS-PAGE. As for the experimental part: The deployed cross-linking reaction system contained 20 mM HEPES pH 7.5, 250 mM NaCl and 5 µM tested proteins with a total volume of 20 µl. This system was allowed to incubate for 30 min at 30 °C, and then combined with disuccinimidyl suberate (DSS) at a final concentration of 3 mM, and the mixtures were further incubated at 4 °C for 20 min. The cross-linking reaction was stopped by adding 1 M Tris HCl (pH 8.5) to the incubated mixture at 4 °C, and allowing the mixture to sit for 10 min, and then boiling it in 1×SDS loading buffer to provide samples for SDS-PAGE analysis.

Data set [1] concerns trypsin, actinase E, thermolysin, proteinase K, chymotrypsin-α. Description: Stability of peptides treated with proteases (gel). Type of data set: in vitro ADME. The note with it: 30 °C for 1 h, gel read-out. The source says: To improve the stability and bioavailability of glup, we subjected it to disulfide-cyclization and C-terminal amidation to generate a macrocyclic version of the peptide and denoted it as GLUP (Fig. 5D). […] However, there were no significant differences in solubility, permeability, and TEAD4-binding affinity between GLUP and glup (Fig. 5F and Appendix Figs. S5F–H). […] These droplets rapidly dissolved when exposed to increased concentrations of NaCl (Fig. 5G, right).
Appendix Figure S5. Optimization of the Linker Peptide
A. Fluorescence polarization (FP) assay to detect the interaction of purified TEAD4 protein with FA M-labeled glup. mP, millipolarization (FP values). B. Microscale […]
protein with glup or glupmut. Kd values are shown. glupmut, an interaction-dead control peptide with the sequence […]. C. Crosslinking assay of TEAD4 […]
oligomerization in the presence of glup or glupmut after DSS treatment. D. Crosslinking assay of TEAD4 oligomerization in the presence of glup or GLUP with or without DSS treatment. E. Gels assessing protein stability levels of glup and GLUP after they were treated with indicated proteases. TR, trypsin; AE, actinase E; TH, thermolysin; PK, proteinase K; CH-α, chymotrypsin-α. […]
(right). […] The data were analyzed using one-way ANOVA, followed by the Tukey’s post-hoc test. *, p < 0.05; **, […]

A further data set has as its system MNU-induced GC tumors. Put plainly: MNU-induced gastric cancer mouse model. Type of data set: in vivo. Also on record: Tumor area, GLUP+ / Tumor area, GLUP++: unit not given here. As for the experimental part: For the model involving N-nitroso-N-methylurea (MNU)-induced GC, 8-week-old C57BL/6 mice received 3 cycles of MNU (TRC, Toronto, Canada) in drinking water. For each cycle, drinking water containing 240 μg/ml MNU was served to the mice for 1 week, and then normal drinking water the next week. After 19 weeks of MNU administration, mice were randomized to receive GLUP via intraperitoneal injection (i.p.) biweekly for the following 5 weeks (n = 8/group). After 24 weeks, mice were sacrificed for subsequent analysis. The tumor volume per stomach was measured.

Another data set deals with AZ-521 cells. It counts as cell-based, human. The note with it: 48 h. As for the experimental part: (§1) For cell viability assays, cells were seeded into 96-well plates overnight to attach them to the plates, and then treated with GLUP for 48 h. Cells incubated for indicated periods of time were analyzed using an ATP-based CellTiter-Lumi^TM Plus kit (Beyotime) according to the manufacturer’s instructions. The intracellular ATP contents were measured using a BioTek Synergy^TM NEO multi-detector microplate reader (Thermo). Cell viability was calculated using the equation cell viability (%) = [[value (test) − value (blank)] × [value (control) − value (blank)]] −1 × 100.

The test system of another data set is GES-1 cells. It counts as cell-based, human. The note with it: 48 h. As for the experimental part: as §1
In a further data set the test system is SNU-216 cells. Type of data set: cell-based, human. The note with it: 48 h. As for the experimental part: as §1
The next data set relates to MKN-28 cells. It counts as cell-based, human. The note with it: 48 h. As to the method:
as §1

The test system of a further data set is MGC-803 cells. Type of data set: cell-based, human. The note with it: 48 h. As to the method:
as §1

In another data set the test system is BGC-823 cells. Type of data set: cell-based, human. The settings on record: 48 h. As for the experimental part: as §1
A further data set deals with AGS cells. It counts as cell-based, human. The note with it: 48 h. As to the method:
as §1

The subject of a further data set is HGC-27 cells. Type of data set: cell-based, human. As for the experimental part: as §1
In a further data set the test system is SH-10-TC cells. It counts as cell-based, human. The settings on record: 48 h. As to the method: as §1
The next data set relates to MKN-45 cells. It counts as cell-based, human. The note with it: 48 h. As to the method: as §1

T1 sequence (Q15561 whole entry): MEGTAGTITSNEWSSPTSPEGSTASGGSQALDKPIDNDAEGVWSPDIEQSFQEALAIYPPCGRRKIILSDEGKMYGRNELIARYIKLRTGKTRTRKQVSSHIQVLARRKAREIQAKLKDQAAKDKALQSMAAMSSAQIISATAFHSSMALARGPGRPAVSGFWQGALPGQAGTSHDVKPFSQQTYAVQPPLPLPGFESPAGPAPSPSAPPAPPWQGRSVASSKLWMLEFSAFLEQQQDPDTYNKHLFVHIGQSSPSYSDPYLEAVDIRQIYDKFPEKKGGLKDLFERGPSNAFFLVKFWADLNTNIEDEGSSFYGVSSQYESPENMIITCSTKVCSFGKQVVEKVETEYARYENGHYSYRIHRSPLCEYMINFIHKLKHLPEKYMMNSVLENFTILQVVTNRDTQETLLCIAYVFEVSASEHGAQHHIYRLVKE

In the case of “RRVCVHFHFSLSLR-NH2 (C-terminus assumed) [glup]”, the “Expression of TEAD4 target gene CTGF in tumor tissue” value in the data set with CTGF is “sharply decreased in a dose-dependent manner”. The “TEAD4 oligomerization in DSS cross-linking” value at TEAD4 is on record as “induced TEAD4 oligomerization in a concentration-dependent manner”; on TEAD4 (listed as GLUP) it was “strongly induced TEAD4 oligomerization”. Besides, the “Stability towards various proteases” value is “almost completely digested” in data set [1] and “remained intact” in [1] (listed as GLUP). Besides, the “Average tumor area vs control” value with MNU-induced GC tumors (MNU-induced GC mice, 5-week GLUP treatment) is listed as “much smaller than that in control mice”. For the same substance, the Gastric mucosa histology entry with MNU-induced GC tumors (MNU-induced GC mice, high dose GLUP 5 mg/kg) is “almost normal gastric mucosa”. The “Tumor area, GLUP+” value in the data set with MNU-induced GC tumors (MNU-induced GC, C57BL/6 mice, 1 mg/kg GLUP biweekly for 5 weeks, individual mice (source data Fig 7B), 1 mg/kg) is 28.125 and 40.5 and 20.5 and 4.5 and 6.5 and 16.2. In addition, the “Tumor area, GLUP++” value in the data set on MNU-induced GC tumors (MNU-induced GC, C57BL/6 mice, 5 mg/kg GLUP biweekly for 5 weeks, individual mice (source data Fig 7B), 5 mg/kg) was 4.5 and 2.5315 and 0.5 and 0. In addition, the IC50 in the data set on AZ-521 cells is 8.1 µg/mL; with GES-1 cells, 13.1 µg/mL; with SNU-216 cells, 23.4 µg/mL; with MKN-28 cells it was 6.7 µg/mL; in the data set with MGC-803 cells, 2.5 µg/mL; in the data set with BGC-823 cells it was 26.1 µg/mL. Besides, the IC50 with AGS cells worked out at 34 µg/mL; in the data set on SH-10-TC cells, 26.3 µg/mL; in the data set with MKN-45 cells it was 7.3 µg/mL. Besides, in the data set on HGC-27 cells (HGC-27, 0.1 µg/ml GLUP, 48 h (peer review file, Figure R22C)), the Cell death is on record as ~60%. Further, in the data set with HGC-27 cells (HGC-27, 0.1/1 µg/ml GLUP (peer review file, Figure R23)), the “Suppression of cell growth with or without YAP (5SA) overexpression” value is recorded as “regardless of YAP (5SA) expression”.
